Results reported in patent publication US12225917B2 (priority 2017, dated 2025).
“And” between values parts separate entries of the source, which are not always exact repeats. Equal values may be shown once. Read-outs that look alike come from different tables or passages of the source.

How the values were obtained:
Eimeria species = tested on: Eimeria species; design: species or system commercial meat chickens; conditions: in vivo
[1] = General safety in broilers reared to market weight by histology (Example 8); format: in vivo, broiler chickens; conditions: histology D42
Description: This study evaluates the safety of IRP001 chloride in broilers through examination of histology.
The objective of this study was to test the general safety of IRP001 chloride in broilers reared to market weight by examination of histology.
The experiment consisted of the following treatments (1 pen per treatment, Table 54).
Birds were kept in a pen having an area of 4×10=40 ft^2, with clean wood shavings as bedding with a thickness of approximately 4 inches. The pen had 5 feet high side walls with a bottom 1 ½ feet being of solid wood to prevent bird migration.
The temperature of the building was monitored. Environmental conditions during the trial (temperature) were appropriate (optimum) to the age of the animals. Illumination was provided by fluorescent bulbs placed above the pens. The diets were provided ad libitum in one tube-type feeder per pen. From D0 until D7, feed was also supplied on a tray placed on the litter of each pen. Water was provided ad libitum from one Plasson drinker per pen.
Standard floor pen management practices were used throughout the experiment. Animals and housing facilities were inspected twice daily, observing and recording the general health status, constant feed and water supply as well as temperature, removing all dead birds, and recognizing unexpected events. Birds found dead during the study were noted on the Daily Mortality Record, and were not replaced. Pen number, the date of mortality, sex, weight, and diagnosis were recorded.
Day of hatch male Cobb chicks were obtained and ten male broiler chicks were placed in each pen. Accountabilities of all test animals and any extra birds were recorded on animal disposition form. The birds were sexed at the hatchery. The breeder flock history and vaccination record at the hatchery were recorded. Bird weights by pen were recorded on D0 and 42.
All weights were by pen. Treatment Starter feed was fed from D0 to 21. On D21, non-consumed Starter was weighed by pen and discarded. Grower feed was issued and fed until D35. On D35, non-consumed Grower was weighed by pen and discarded. Finisher feed was fed until D42. On D42, non-consumed Finisher was weighed by pen and discarded.
On the day of study completion (D42), five birds from each pen were humanly euthanized and upper, mid and lower gut sections plus liver lobe were collected and stored in neutral buffered formalin. Theses samples were shipped for analysis.

[2] = in vivo
[3] = Example 3: intestinal health scores based on Tierlynck et al. 2011 (dysbacteriosis, gross gut pathology); format: in vivo, commercial meat chickens; conditions: for Ballooning (total gut) score / Contents lower intestine score / Contents upper intestine score / Hyperaemia lower intestine score / Hyperaemia upper intestine score / Tonus lower intestine score / Tonus upper intestine score / Total Intestine health score (maximum 10) / Translucency lower intestine score / Translucency upper intestine score / Undigested particles in rectum score: reference feed: Salino, or Sal Zn Bac
Description: […] General gut quality (looking for enteritis) was also visually assessed at that point.
This is a scoring system aimed at quantifying the level of dysbacteriosis present in a group of birds, attributing scores for certain grossly visible abnormalities. Higher total scores (maximum 10) reflect a higher level of dysbacteriosis, although this may be compromised if coccidiosis is present. For our purposes, the intestinal scores simply reflect gross gut pathology.

[4] = tested on: Clostridium Perfringens (type A strain EHE-NE36)
[5] = broilers in a production environment
[6] = NE challenge, IVP 0.1 g/L In-water, Groups 7, 8
[7] = NE challenge, IVP 0.2 g/kg In-feed, Group 11
[8] = NE challenge, IVP 1.0 g/L In-water, Groups 9, 10
[9] = NE challenge, IVP 2.0 g/kg In-feed, Group 12
[10] = Necrotic Enteritis, IVP water 1.0 g/L, line 'Mean' of Groups 9 and 10
[11] = Necrotic Enteritis, IVP water 1.0 g/L, per isolator, Groups 9 and 10
[12] = Nil Challenge, IVP water 1.0 g/L, line 'Mean' of Groups 3 and 4
[13] = Nil Challenge, IVP water 1.0 g/L, per isolator, Groups 3 and 4
[14] = Nil challenge, IVP 1.0 g/L In-water, Groups 3, 4

SMILES: COc1ccc2cc3[n+](cc2c1OC)CCc1cc2c(cc1-3)OCO2 [IRP001 chloride, berberine chloride]
- coccidiosis lesion scores in duodenum, jejunum and total gut (Eimeria species): highest lesion scores
- oocyst counts in faeces (Eimeria species): numerically lower than the controls
- total gut coccidiosis lesion scores (Eimeria species): significantly reduced total gut lesion scores
- gastrointestinal tract (GIT) histologic lesions [1, 5]: within normal limits
- liver histologic lesions [1, 5]: within normal limits
- Cumulative Pathology and Enteritis scores ([1]; versus control Treatment 1 Nil group): equal or lower than the control
- Feed per bird over period 0-14 days [2]: 485^B g/bird and 513^A g/bird and 512^A g/bird
- Feed per bird over period 0-21 days [2]: 1186^B g/bird and 1227^AB g/bird and 1240^AB g/bird
- Feed per bird over period 0-28 days [2]: 1957 g/bird and 2037 g/bird and 2049 g/bird
- Feed per bird over period 0-42 days [2]: 4121 g/bird and 4247 g/bird and 4305 g/bird
- Mean Weight Gain over period 0-7 days [2]: 113 gm and 121 gm and 119 gm
- Mean Weight Gain over period 8-14 days [2]: 320^C gm and 334^A gm and 343^A gm
- Mean Weight Gain over period 15-21 days [2]: 491^B gm and 517^A gm and 528^A gm
- Mean Weight Gain over period 22-28 days [2]: 593 gm and 618 gm and 600 gm
- Mean Weight Gain over period 29-42 days [2]: 1324 gm and 1341 gm and 1436 gm
- Mean live weight at 0 days [2]: 41 gm
- Mean live weight at 7 days [2]: 160 gm
- Mean live weight at 21 days [2]: 923^C gm
- growth rates throughout the experiment [2]: statistically similar to the control group
- live weight to the end of the experiment (day 42) [2]: remained significantly lighter than all other groups
- mean live weight at 14 days [2]: significantly lower weights than the negative control
- translucency score in the upper intestine and undigested feed particles in the rectum ([3]; 21 days, higher two levels 0.3 and 0.1 g/kg, compared with controls and 0.03 g/kg): reduced translucency score in the upper intestine and the presence of undigested feed particles in the rectum
- total intestinal health scores compared with the controls ([3]; 28 days, 0.3 g/kg in feed, P=0.06): approached significance
- Median Duodenal Lesion Score (0 absent to 4 severe) [4, 6]: 4
- Median Ilial Lesion Score (0 absent to 4 severe) [4, 6]: 4
- Median Jejunal Lesion Score (0 absent to 4 severe) [4, 6]: 4
- Median Duodenal Lesion Score (0 absent to 4 severe) [4, 7]: 4
- Median Ilial Lesion Score (0 absent to 4 severe) [4, 7]: 4
- Median Jejunal Lesion Score (0 absent to 4 severe) [4, 7]: 4
- Median Duodenal Lesion Score (0 absent to 4 severe) [4, 8]: 1
- Median Ilial Lesion Score (0 absent to 4 severe) [4, 8]: 1
- Median Jejunal Lesion Score (0 absent to 4 severe) [4, 8]: 1
- Median Duodenal Lesion Score (0 absent to 4 severe) [4, 9]: 1
- Median Ilial Lesion Score (0 absent to 4 severe) [4, 9]: 1
- Median Jejunal Lesion Score (0 absent to 4 severe) [4, 9]: 1
- Mortalities prior to autopsy ([4]; Necrotic Enteritis, IVP feed 0.2 g/kg, Group 11): 9
- Mortalities prior to autopsy ([4]; Necrotic Enteritis, IVP feed 2 g/kg, Group 12): 2
- Mortalities prior to autopsy ([4]; Necrotic Enteritis, IVP water 0.1 g/L, per isolator, Groups 7 and 8, listed as IVP): 10
- Mortalities prior to autopsy [4, 10]: 0
- Mortality % [4, 10]: 0%
- Mortalities prior to autopsy [4, 11]: 0
- Mortality % [4, 11]: 0%
- Mortalities prior to autopsy [4, 12]: 0
- Mortality % [4, 12]: 0%
- Mortalities prior to autopsy [4, 13]: 0
- Mortality % [4, 13]: 0%
- Median Duodenal Lesion Score (0 absent to 4 severe) [4, 14]: 0
- Median Ilial Lesion Score (0 absent to 4 severe) [4, 14]: 0
- Median Jejunal Lesion Score (0 absent to 4 severe) [4, 14]: 0

SMILES: CC[C@@H](C(=O)[C@@H](C)[C@@H](O)[C@H](C)[C@@H]1O[C@@H]([C@@H](CC)C(=O)O)CC[C@@H]1C)[C@H]1O[C@]2(C=C[C@@H](O)[C@]3(CC[C@@](C)([C@H]4CC[C@](O)(CC)[C@H](C)O4)O3)O2)[C@H](C)C[C@@H]1C [salinomycin, Salinomycin]
- Faecal oocyst count, Log10 Mean (Eimeria species): 4.72^B Log10 (Oocyst/g faeces)
- Faecal oocyst count, Mean (Eimeria species): 72,046 Oocyst/g faeces
- Feed per bird over period 0-14 days [2]: 497^AB g/bird
- Feed per bird over period 0-21 days [2]: 1193^B g/bird
- Feed per bird over period 0-28 days [2]: 2074 g/bird
- Feed per bird over period 0-42 days [2]: 4298 g/bird
- Mean Weight Gain over period 0-7 days [2]: 116 gm
- Mean Weight Gain over period 8-14 days [2]: 330^BC gm
- Mean Weight Gain over period 15-21 days [2]: 517^A gm
- Mean Weight Gain over period 22-28 days [2]: 645 gm
- Mean Weight Gain over period 29-42 days [2]: 1384 gm
- Mean live weight at 0 days [2]: 41 gm
- growth rates throughout the experiment [2]: statistically similar to the control group
- mean live weight at 14 days [2]: 446^AB gm
- Ballooning (total gut) score ([3]; Age 21 days): 0.10
- Contents lower intestine score ([3]; Age 21 days): 0.45
- Contents upper intestine score ([3]; Age 21 days): 0.65
- Hyperaemia lower intestine score ([3]; Age 21 days): 0.00
- Hyperaemia upper intestine score ([3]; Age 21 days): 0.15
- Tonus lower intestine score ([3]; Age 21 days): 0.50
- Tonus upper intestine score ([3]; Age 21 days): 0.50
- Total Intestine health score (maximum 10) ([3]; Age 21 days): 3.55
- Translucency lower intestine score ([3]; Age 21 days): 0.85
- Translucency upper intestine score ([3]; Age 21 days): 0.20^B
- Undigested particles in rectum score ([3]; Age 21 days): 0.15^B
- Ballooning (total gut) score ([3]; Age 28 days): 0.80
- Contents lower intestine score ([3]; Age 28 days): 0.00
- Contents upper intestine score ([3]; Age 28 days): 1.00
- Hyperaemia lower intestine score ([3]; Age 28 days): 0.20
- Hyperaemia upper intestine score ([3]; Age 28 days): 0.80
- Tonus lower intestine score ([3]; Age 28 days): 0.60
- Tonus upper intestine score ([3]; Age 28 days): 0.80
- Total Intestine health score (maximum 10) ([3]; Age 28 days): 5.20
- Translucency lower intestine score ([3]; Age 28 days): 0.20
- Translucency upper intestine score ([3]; Age 28 days): 0.40
- Undigested particles in rectum score ([3]; Age 28 days): 0.40
